# pIC50: −log10 of the molar value.
# Test system: 276233-004-R-J1-PDC spheroids with HUVEC/MSC, viability
# Experiment: Anticancer human tumor 276233-004-R-J1-PDC patient-derived colon adenocarcinoma cell line growth inhibition [TAK]
# Details: for pIC50: curve of first compound; for viability, T/C: stronger effect = lower value
# Source text: Combinatorial screen of targeted agents with TAK-243 and ipatasertib in multi-cell type tumor spheroids
# A high-throughput screen of multi-cell type tumor spheroids was designed to identify active combinations of targeted small molecules and TAK-243 or ipatasertib. Complex spheroids include a stromal component modeled by human endothelial cells (HUVEC) and fibroblasts modeled by human mesenchymal stem cells (MSCs). The concentration ranges selected for each drug and investigational agent were based upon clinically achievable concentrations if the clinical Cmax of the agent was known.
# Compounds. The drugs and investigational agents: TAK-243 (785004), ipatasertib (767898), everolimus (733504), selumetinib (741078), bortezomib (756655), trametinib (758246), ixazomib (758254), vemurafenib (761431), dabrafenib (764134), sapanisertib (764658), alpelisib (765974), and copanlisib (816437), were obtained from the National Cancer Institute (NCI) Developmental Therapeutics Program Chemical Repository. The FDA-approved anticancer drug set is available from the NCI Developmental Therapeutics Program. […] The stock solutions were prepared in dimethyl sulfoxide (DMSO, Sigma-Aldrich, St. Louis, MO, cat. D2650) at 800-fold the tested concentration and stored at -70 degrees C prior to their use. All drugs and investigational agents were tested over a range starting from a high concentration at or near the clinical Cmax and decreasing in half-log increments. If the clinical Cmax for an agent had not been determined, the highest concentration tested was 10 microM.
# NCI60 Cell Culture. NCI60 cell lines were obtained from the NCI Developmental Therapeutics Program Tumor Repository. For each lot of cells, the Repository performed Applied Biosystems AmpFLSTR Identifiler testing with PCR amplification to confirm consistency with the published Identifier STR profile for each cell line. Cells were kept in continuous culture for no more than 20 passages. The optimal seeding densities for each of the cell lines at each time point assessed were determined prior to performing the concentration response studies. Briefly, the NCI60 human tumor lines were grown as monolayers in RPMI 1640 medium supplemented with 10% FBS and 2 mmol/L L-glutamine.
# An additional 2 lines were from the NCI60 cell line panel including melanomas, MALME-3M and SK-MEL-2. Pooled donor human umbilical vein endothelial cells (HUVEC, Lonza, cat. CC-2519) and human mesenchymal stem cells (hMSC, Lonza, cat. PT-2501) were purchased from Lonza (Walkersville, MD).
# PDMR cell lines were grown in complete medium (DC medium): Dulbecco's modified Eagle's medium (DMEM)/F12 supplemented with 5% fetal bovine serum (FBS), 2 mM L-glutamine, 100 U/mL penicillin and 100 µg/ml streptomycin, 0.4 µg/ml hydrocortisone, 10 ng/ml epidermal growth factor (EGF) recombinant human protein, 24 µg/mL adenine, and 0.1 mg/mL primocin. During culture from frozen stock vials, PDMR cells were cultured in the same medium containing 10 µM Y-27632 (see Table 3). The PDCs were cultured in complete DMEM/F12 media without 10 microM Y-27632 dihydrochloride for at least two passages prior to the screen. The pooled donor HUVEC and hMSC were cultured in endothelial cell growth medium 2 (PromoCell, Heidelberg, Germany, cat. C-22011) and mesenchymal stem cell growth medium 2 (PromoCell, cat. C-28009), respectively. For all experiments, HUVEC and hMSC were used at passages </=5.
# For the pre-screen, cell seeding densities were determined from a titration spanning the range from 5,000 to 313 cells per well. The mct-spheroids including 60% malignant cells, 25% HUVEC and 15% MSC dispensed as a mixture into U-bottom Ultra-Low Attachment 384-well plates (Corning, NY)
# High-throughput Drug Combination Screening.
# Prior to their inoculation into 384-well plates, malignant cells, HUVEC, and hMSC were removed from T flasks using TrypLE express (Thermo Fisher Scientific, cat. 12605036) and harvested by centrifugation for 5 min at 233 x g. […]
# 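Further: spheroids exposed to drugs for seven days before the viability read.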
smiles,measurement,setting,value
CC(C)CC(NC(=O)C(Cc1ccccc1)NC(=O)c1cnccn1)B(O)O (stereo not given) + CC(C)NCC(C(=O)N1CCN(c2ncnc3c2C(C)CC3O)CC1)c1ccc(Cl)cc1,pIC50,second compound 0.3 µM,8.22
same,pIC50,second compound 0.949 µM,8.27
same,pIC50,second compound 3 µM,8.42
same,pIC50,second compound 9.49 µM,8.36
same,pIC50,second compound 30 µM,8.86
same,"viability, T/C","second compound 0.3 µM, first compound 31.6 pM",103%
same,"viability, T/C","second compound 0.3 µM, first compound 0.0001 µM",100%
same,"viability, T/C","second compound 0.3 µM, first compound 0.000316 µM",109%
same,"viability, T/C","second compound 0.3 µM, first compound 0.001 µM",109%
same,"viability, T/C","second compound 0.3 µM, first compound 0.00316 µM",104%
same,"viability, T/C","second compound 0.3 µM, first compound 0.01 µM",6.95%
same,"viability, T/C","second compound 0.949 µM, first compound 31.6 pM",105%
same,"viability, T/C","second compound 0.949 µM, first compound 0.0001 µM",106%
same,"viability, T/C","second compound 0.949 µM, first compound 0.000316 µM",147%
same,"viability, T/C","second compound 0.949 µM, first compound 0.001 µM",96.8%
same,"viability, T/C","second compound 0.949 µM, first compound 0.00316 µM",82.9%
same,"viability, T/C","second compound 0.949 µM, first compound 0.01 µM",13%
same,"viability, T/C","second compound 3 µM, first compound 31.6 pM",73.4%
same,"viability, T/C","second compound 3 µM, first compound 0.0001 µM",79.4%
same,"viability, T/C","second compound 3 µM, first compound 0.000316 µM",81.7%
same,"viability, T/C","second compound 3 µM, first compound 0.001 µM",80.3%
same,"viability, T/C","second compound 3 µM, first compound 0.00316 µM",59.1%
same,"viability, T/C","second compound 3 µM, first compound 0.01 µM",4.72%
same,"viability, T/C","second compound 9.49 µM, first compound 31.6 pM",61%
same,"viability, T/C","second compound 9.49 µM, first compound 0.0001 µM",80.3%
same,"viability, T/C","second compound 9.49 µM, first compound 0.000316 µM",73.4%
same,"viability, T/C","second compound 9.49 µM, first compound 0.001 µM",66%
same,"viability, T/C","second compound 9.49 µM, first compound 0.00316 µM",67.7%
same,"viability, T/C","second compound 9.49 µM, first compound 0.01 µM",4.19%
same,"viability, T/C","second compound 30 µM, first compound 31.6 pM",56%
same,"viability, T/C","second compound 30 µM, first compound 0.0001 µM",53.2%
same,"viability, T/C","second compound 30 µM, first compound 0.000316 µM",55.3%
same,"viability, T/C","second compound 30 µM, first compound 0.001 µM",61.4%
same,"viability, T/C","second compound 30 µM, first compound 0.00316 µM",33.3%
same,"viability, T/C","second compound 30 µM, first compound 0.01 µM",20.5%
Cn1cnc2c(F)c(Nc3ccc(Br)cc3Cl)c(C(=O)NOCCO)cc21 + CC(C)NCC(C(=O)N1CCN(c2ncnc3c2C(C)CC3O)CC1)c1ccc(Cl)cc1,pIC50,second compound 0.3 µM,6.34
same,pIC50,second compound 0.949 µM,6.44
same,pIC50,second compound 3 µM,6.84
same,pIC50,second compound 9.49 µM,7.20
same,pIC50,second compound 30 µM,8.02
same,"viability, T/C","second compound 0.3 µM, first compound 0.00949 µM",79.5%
same,"viability, T/C","second compound 0.3 µM, first compound 0.03 µM",82.8%
same,"viability, T/C","second compound 0.3 µM, first compound 0.0949 µM",65.4%
same,"viability, T/C","second compound 0.3 µM, first compound 0.3 µM",52%
same,"viability, T/C","second compound 0.3 µM, first compound 0.949 µM",49.8%
same,"viability, T/C","second compound 0.3 µM, first compound 3 µM",38.5%
same,"viability, T/C","second compound 0.949 µM, first compound 0.00949 µM",73.6%
same,"viability, T/C","second compound 0.949 µM, first compound 0.03 µM",68.5%
same,"viability, T/C","second compound 0.949 µM, first compound 0.0949 µM",57.9%
same,"viability, T/C","second compound 0.949 µM, first compound 0.3 µM",52.2%
same,"viability, T/C","second compound 0.949 µM, first compound 0.949 µM",43.1%
same,"viability, T/C","second compound 0.949 µM, first compound 3 µM",33.3%
same,"viability, T/C","second compound 3 µM, first compound 0.00949 µM",67.2%
same,"viability, T/C","second compound 3 µM, first compound 0.03 µM",61.1%
same,"viability, T/C","second compound 3 µM, first compound 0.0949 µM",54.4%
same,"viability, T/C","second compound 3 µM, first compound 0.3 µM",42%
same,"viability, T/C","second compound 3 µM, first compound 0.949 µM",39.7%
same,"viability, T/C","second compound 3 µM, first compound 3 µM",31.4%
same,"viability, T/C","second compound 9.49 µM, first compound 0.00949 µM",64%
same,"viability, T/C","second compound 9.49 µM, first compound 0.03 µM",57.1%
same,"viability, T/C","second compound 9.49 µM, first compound 0.0949 µM",45.6%
same,"viability, T/C","second compound 9.49 µM, first compound 0.3 µM",40.4%
same,"viability, T/C","second compound 9.49 µM, first compound 0.949 µM",32.7%
same,"viability, T/C","second compound 9.49 µM, first compound 3 µM",28.9%
same,"viability, T/C","second compound 30 µM, first compound 0.00949 µM",50.1%
same,"viability, T/C","second compound 30 µM, first compound 0.03 µM",45.2%
same,"viability, T/C","second compound 30 µM, first compound 0.0949 µM",42.5%
same,"viability, T/C","second compound 30 µM, first compound 0.3 µM",52%
same,"viability, T/C","second compound 30 µM, first compound 0.949 µM",28.9%
same,"viability, T/C","second compound 30 µM, first compound 3 µM",33.1%

# Reference: PubChem BioAssay AID2060359 (Molecular Pharmacology Branch, DTP, NCI, 2025)
